Values after ≈ are worked out from the molar mass of the structure shown.
Experiments:
[1] = system: Mycolicibacterium smegmatis; experiment: Antimycobacterial activity against Mycobacterium smegmatis (SANK 75075); format: functional
[2] = biological target: T1, Phospho-N-acetylmuramoyl-pentapeptide-transferase (Escherichia coli K-12, UniProt P0A6W3); experiment: Inhibitory activity against translocase I
T1 sequence (P0A6W3 whole entry): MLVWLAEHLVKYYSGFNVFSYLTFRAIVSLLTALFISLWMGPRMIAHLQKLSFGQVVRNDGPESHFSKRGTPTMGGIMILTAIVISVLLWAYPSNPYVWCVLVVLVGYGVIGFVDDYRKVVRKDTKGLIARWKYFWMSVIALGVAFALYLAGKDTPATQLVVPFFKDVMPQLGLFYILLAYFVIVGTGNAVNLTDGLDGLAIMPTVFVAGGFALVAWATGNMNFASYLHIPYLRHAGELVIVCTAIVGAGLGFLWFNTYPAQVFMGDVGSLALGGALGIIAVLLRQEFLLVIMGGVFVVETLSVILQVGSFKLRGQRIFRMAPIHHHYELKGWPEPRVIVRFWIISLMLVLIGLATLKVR

[3] = system: Mycobacterium avium; experiment: Antimycobacterial activity against Mycobacterium avium (NIHJ1605); format: functional
[4] = system: Mycobacterium intracellulare; experiment: Antimycobacterial activity against Mycobacterium intracellular (ATCC 1954 E-3); format: functional
[5] = system: Mycobacterium kansasii; experiment: Antimycobacterial activity against Mycobacterium kansasii (ATCC12478); format: functional

Row | Structure (SMILES) | MIC [1] | IC50 [2] | MIC [3] | MIC [4] | MIC [5]
1 | CCCCCCc1ccc(NC(=O)C2=C[C@H](O)[C@H](O)[C@@H](O[C@@H](C(N)=O)[C@H]3O[C@@H](n4ccc(=O)[nH]c4=O)[C@H](O)[C@@H]3OC)O2)cc1 | 12.5 µg/mL (≈ 20.2 µM) | 259 nM | – | – | –
2 | CO[C@H]1[C@@H](O)[C@H](n2ccc(=O)[nH]c2=O)O[C@@H]1[C@@H](O[C@H]1OC(C(=O)Nc2ccccc2OCc2ccccc2)=C[C@H](O)[C@@H]1O)C(N)=O | 25 µg/mL (≈ 39 µM) | 35.9 nM | – | – | –
3 | COc1ccccc1CNC(=O)C1=C[C@H](O)[C@H](O)[C@@H](O[C@@H](C(N)=O)[C@H]2O[C@@H](n3ccc(=O)[nH]c3=O)[C@H](O)[C@@H]2OC)O1 | 50 µg/mL (≈ 86.4 µM) | 484 nM | – | – | –
4 | CO[C@H]1[C@@H](O)[C@H](n2ccc(=O)[nH]c2=O)O[C@@H]1[C@@H](O[C@H]1OC(C(=O)Nc2ccc(F)cc2)=C[C@H](O)[C@@H]1O)C(N)=O | 6.25 µg/mL (≈ 11.3 µM) | 67 nM | 4 µg/mL (≈ 7.24 µM) | 2 µg/mL (≈ 3.62 µM) | 2 µg/mL (≈ 3.62 µM)
5 | CO[C@H]1[C@@H](O)[C@H](n2ccc(=O)[nH]c2=O)O[C@@H]1[C@@H](O[C@H]1OC(C(=O)NCCc2ccc(Cl)cc2Cl)=C[C@H](O)[C@@H]1O)C(N)=O | 50 µg/mL (≈ 79.2 µM) | 30.1 nM | – | – | –
6 | CO[C@H]1[C@@H](O)[C@H](n2ccc(=O)[nH]c2=O)O[C@@H]1[C@@H](O[C@H]1OC(C(=O)NCc2ccc(F)cc2)=C[C@H](O)[C@@H]1O)C(N)=O | 50 µg/mL (≈ 88.3 µM) | 353 nM | – | – | –
7 | CO[C@H]1[C@@H](O)[C@H](n2ccc(=O)[nH]c2=O)O[C@@H]1[C@@H](O[C@H]1OC(C(=O)Nc2ccc(C)cc2C)=C[C@H](O)[C@@H]1O)C(N)=O | 25 µg/mL (≈ 44.4 µM) | 107 nM | – | – | –
8 | CO[C@H]1[C@@H](O)[C@H](n2ccc(=O)[nH]c2=O)O[C@@H]1[C@@H](O[C@H]1OC(C(=O)Nc2ccc(F)cc2F)=C[C@H](O)[C@@H]1O)C(N)=O | 12.5 µg/mL (≈ 21.9 µM) | 26.3 nM | – | – | –
9 | CO[C@H]1[C@@H](O)[C@H](n2ccc(=O)[nH]c2=O)O[C@@H]1[C@@H](O[C@H]1OC(C(=O)N[C@@H](C)c2ccccc2)=C[C@H](O)[C@@H]1O)C(N)=O | 50 µg/mL (≈ 88.9 µM) | 231 nM | – | – | –
10 | CO[C@H]1[C@@H](O)[C@H](n2ccc(=O)[nH]c2=O)O[C@@H]1[C@@H](O[C@H]1OC(C(=O)Nc2ccc(Br)cc2)=C[C@H](O)[C@@H]1O)C(N)=O | 6.25 µg/mL (≈ 10.2 µM) | 32.6 nM | 8 µg/mL (≈ 13 µM) | 0.5 µg/mL (≈ 0.815 µM) | 8 µg/mL (≈ 13 µM)
11 | CNC(=O)C1=C[C@H](O)[C@H](O)[C@@H](O[C@@H](C(N)=O)[C@H]2O[C@@H](n3ccc(=O)[nH]c3=O)[C@H](O)[C@@H]2OC)O1 | > 100 µg/mL | 381 nM | – | – | –
12 | COc1cccc(CCNC(=O)C2=C[C@H](O)[C@H](O)[C@@H](O[C@@H](C(N)=O)[C@H]3O[C@@H](n4ccc(=O)[nH]c4=O)[C@H](O)[C@@H]3OC)O2)c1 | 50 µg/mL (≈ 84.4 µM) | 32.1 nM | – | – | –
13 | CCOCCCNC(=O)C1=C[C@H](O)[C@H](O)[C@@H](O[C@@H](C(N)=O)[C@H]2O[C@@H](n3ccc(=O)[nH]c3=O)[C@H](O)[C@@H]2OC)O1 | 100 µg/mL (≈ 184 µM) | 257 nM | – | – | –
14 | CCCCNC(=O)C1=C[C@H](O)[C@H](O)[C@@H](O[C@@H](C(N)=O)[C@H]2O[C@@H](n3ccc(=O)[nH]c3=O)[C@H](O)[C@@H]2OC)O1 | 12.5 µg/mL (≈ 24.3 µM) | 544 nM | – | – | –
15 | CO[C@H]1[C@@H](O)[C@H](n2ccc(=O)[nH]c2=O)O[C@@H]1[C@@H](O[C@H]1OC(C(=O)NCc2ccc3c(c2)OCO3)=C[C@H](O)[C@@H]1O)C(N)=O | 50 µg/mL (≈ 84.4 µM) | 338 nM | – | – | –
16 | CO[C@H]1[C@@H](O)[C@H](n2ccc(=O)[nH]c2=O)O[C@@H]1[C@@H](O[C@H]1OC(C(=O)Nc2ccc(Cl)cc2)=C[C@H](O)[C@@H]1O)C(N)=O | 6.25 µg/mL (≈ 11 µM) | 31.6 nM | 4 µg/mL (≈ 7.03 µM) | 2 µg/mL (≈ 3.52 µM) | 16 µg/mL (≈ 28.1 µM)
17 | CO[C@H]1[C@@H](O)[C@H](n2ccc(=O)[nH]c2=O)O[C@@H]1[C@@H](O[C@H]1OC(C(=O)Nc2cccc(C)c2)=C[C@H](O)[C@@H]1O)C(N)=O | 12.5 µg/mL (≈ 22.8 µM) | 13.9 nM | 4 µg/mL (≈ 7.29 µM) | 1 µg/mL (≈ 1.82 µM) | 8 µg/mL (≈ 14.6 µM)

Row | Structure (SMILES) | MIC [1] | IC50 [2] | MIC [3] | MIC [4] | MIC [5]
18 | CO[C@H]1[C@@H](O)[C@H](n2ccc(=O)[nH]c2=O)O[C@@H]1[C@@H](O[C@H]1OC(C(=O)NCCc2ccccn2)=C[C@H](O)[C@@H]1O)C(N)=O | 25 µg/mL (≈ 44.4 µM) | 195 nM | – | – | –
19 | COc1ccc(CNC(=O)C2=C[C@H](O)[C@H](O)[C@@H](O[C@@H](C(N)=O)[C@H]3O[C@@H](n4ccc(=O)[nH]c4=O)[C@H](O)[C@@H]3OC)O2)cc1 | 100 µg/mL (≈ 173 µM) | 1210 nM | – | – | –
20 | CO[C@H]1[C@@H](O)[C@H](n2ccc(=O)[nH]c2=O)O[C@@H]1[C@@H](O[C@H]1OC(C(=O)N[C@H]2CCC[C@@H](C)NC2=O)=C[C@H](O)[C@@H]1O)C(N)=O | 6.25 µg/mL (≈ 10.7 µM) | – | 8 µg/mL (≈ 13.7 µM) | 4 µg/mL (≈ 6.85 µM) | 16 µg/mL (≈ 27.4 µM)
21 | CO[C@H]1[C@@H](O)[C@H](n2ccc(=O)[nH]c2=O)O[C@@H]1[C@@H](O[C@H]1OC(C(=O)NCCc2ccccc2)=C[C@H](O)[C@@H]1O)C(N)=O | 12.5 µg/mL (≈ 22.2 µM) | 37.3 nM | – | – | –
22 | CO[C@H]1[C@@H](O)[C@H](n2ccc(=O)[nH]c2=O)O[C@@H]1[C@@H](O[C@H]1OC(C(=O)Nc2cccc(F)c2)=C[C@H](O)[C@@H]1O)C(N)=O | 6.25 µg/mL (≈ 11.3 µM) | – | 2 µg/mL (≈ 3.62 µM) | 2 µg/mL (≈ 3.62 µM) | 8 µg/mL (≈ 14.5 µM)
23 | CO[C@H]1[C@@H](O)[C@H](n2ccc(=O)[nH]c2=O)O[C@@H]1[C@@H](O[C@H]1OC(C(=O)NCc2ccccn2)=C[C@H](O)[C@@H]1O)C(N)=O | 100 µg/mL (≈ 182 µM) | 655 nM | – | – | –
24 | CCOc1ccccc1NC(=O)C1=C[C@H](O)[C@H](O)[C@@H](O[C@@H](C(N)=O)[C@H]2O[C@@H](n3ccc(=O)[nH]c3=O)[C@H](O)[C@@H]2OC)O1 | 50 µg/mL (≈ 86.4 µM) | 64 nM | – | – | –
25 | CO[C@H]1[C@@H](O)[C@H](n2ccc(=O)[nH]c2=O)O[C@@H]1[C@@H](O[C@H]1OC(C(=O)Nc2ccccc2)=C[C@H](O)[C@@H]1O)C(N)=O | 6.25 µg/mL (≈ 11.7 µM) | – | 16 µg/mL (≈ 29.9 µM) | 4 µg/mL (≈ 7.48 µM) | 8 µg/mL (≈ 15 µM)
26 | CO[C@H]1[C@@H](O)[C@H](n2ccc(=O)[nH]c2=O)O[C@@H]1[C@@H](O[C@H]1OC(C(=O)Nc2ccc(C(C)C)cc2)=C[C@H](O)[C@@H]1O)C(N)=O | 25 µg/mL (≈ 43.4 µM) | 208 nM | – | – | –
27 | CO[C@H]1[C@@H](O)[C@H](n2ccc(=O)[nH]c2=O)O[C@@H]1[C@@H](O[C@H]1OC(C(=O)NCc2ccc3ccccc3c2)=C[C@H](O)[C@@H]1O)C(N)=O | 25 µg/mL (≈ 41.8 µM) | 184 nM | – | – | –
28 | COc1ccc(CCNC(=O)C2=C[C@H](O)[C@H](O)[C@@H](O[C@@H](C(N)=O)[C@H]3O[C@@H](n4ccc(=O)[nH]c4=O)[C@H](O)[C@@H]3OC)O2)cc1 | 25 µg/mL (≈ 42.2 µM) | 67.5 nM | – | – | –
29 | CO[C@H]1[C@@H](O)[C@H](n2ccc(=O)[nH]c2=O)O[C@@H]1[C@@H](O[C@H]1OC(C(=O)Nc2ccc(F)c(F)c2)=C[C@H](O)[C@@H]1O)C(N)=O | 6.25 µg/mL (≈ 11 µM) | – | 2 µg/mL (≈ 3.51 µM) | 0.5 µg/mL (≈ 0.876 µM) | 8 µg/mL (≈ 14 µM)
30 | CCCCN(C)C(=O)C1=C[C@H](O)[C@H](O)[C@@H](O[C@@H](C(N)=O)[C@H]2O[C@@H](n3ccc(=O)[nH]c3=O)[C@H](O)[C@@H]2OC)O1 | > 100 µg/mL | > 4730 nM | – | – | –
31 | COC(=O)C1=C[C@H](O)[C@H](O)[C@@H](O[C@@H](C(N)=O)[C@H]2O[C@@H](n3ccc(=O)[nH]c3=O)[C@H](O)[C@@H]2OC)O1 | > 100 µg/mL | 57 nM | – | – | –
32 | CO[C@H]1[C@@H](O)[C@H](n2ccc(=O)[nH]c2=O)O[C@@H]1[C@@H](O[C@H]1OC(C(=O)N[C@H]2CCCCNC2=O)=C[C@H](O)[C@@H]1O)C(N)=O [CAPURAMYCIN] | 12.5 µg/mL (≈ 21.9 µM) | 18 nM | 8 µg/mL (≈ 14 µM) | 8 µg/mL (≈ 14 µM) | 8 µg/mL (≈ 14 µM)
33 | NNC(=O)c1ccncc1 [ISONIAZID] | – | – | 1 µg/mL (≈ 7.29 µM) | 8 µg/mL (≈ 58.3 µM) | 2 µg/mL (≈ 14.6 µM)
34 | CO[C@H]1/C=C/O[C@@]2(C)Oc3c(C)c(O)c4c(O)c(c(/C=N/N5CCN(C)CC5)c(O)c4c3C2=O)NC(=O)/C(C)=C\C=C\[C@H](C)[C@H](O)[C@@H](C)[C@@H](O)[C@@H](C)[C@H](OC(C)=O)[C@@H]1C [RIFAMPIN] | – | – | 0.125 µg/mL (≈ 0.152 µM) | 0.125 µg/mL (≈ 0.152 µM) | 0.25 µg/mL (≈ 0.304 µM)

From ChEMBL document CHEMBL1136174, “Synthesis and antimycobacterial activity of capuramycin analogues. Part 1: substitution of the azepan-2-one moiety of capuramycin” (Bioorg Med Chem Lett, 2003)
